Source: ChEMBL document CHEMBL3588795, “GPCR crystal structures: Medicinal chemistry in the pocket” (Bioorg Med Chem, 2015)

Target: Metabotropic glutamate receptor 1 (Homo sapiens, UniProt Q13255)
Experiment: Negative allosteric modulation of human mGluR1alpha expressed in syrian hamster AV-12 cells assessed as inhibition of quisqualate-induced phosphoinositide hydrolysis
Assay type: cell-based, AV12

Sequence of Metabotropic glutamate receptor 1 (Q13255 whole entry): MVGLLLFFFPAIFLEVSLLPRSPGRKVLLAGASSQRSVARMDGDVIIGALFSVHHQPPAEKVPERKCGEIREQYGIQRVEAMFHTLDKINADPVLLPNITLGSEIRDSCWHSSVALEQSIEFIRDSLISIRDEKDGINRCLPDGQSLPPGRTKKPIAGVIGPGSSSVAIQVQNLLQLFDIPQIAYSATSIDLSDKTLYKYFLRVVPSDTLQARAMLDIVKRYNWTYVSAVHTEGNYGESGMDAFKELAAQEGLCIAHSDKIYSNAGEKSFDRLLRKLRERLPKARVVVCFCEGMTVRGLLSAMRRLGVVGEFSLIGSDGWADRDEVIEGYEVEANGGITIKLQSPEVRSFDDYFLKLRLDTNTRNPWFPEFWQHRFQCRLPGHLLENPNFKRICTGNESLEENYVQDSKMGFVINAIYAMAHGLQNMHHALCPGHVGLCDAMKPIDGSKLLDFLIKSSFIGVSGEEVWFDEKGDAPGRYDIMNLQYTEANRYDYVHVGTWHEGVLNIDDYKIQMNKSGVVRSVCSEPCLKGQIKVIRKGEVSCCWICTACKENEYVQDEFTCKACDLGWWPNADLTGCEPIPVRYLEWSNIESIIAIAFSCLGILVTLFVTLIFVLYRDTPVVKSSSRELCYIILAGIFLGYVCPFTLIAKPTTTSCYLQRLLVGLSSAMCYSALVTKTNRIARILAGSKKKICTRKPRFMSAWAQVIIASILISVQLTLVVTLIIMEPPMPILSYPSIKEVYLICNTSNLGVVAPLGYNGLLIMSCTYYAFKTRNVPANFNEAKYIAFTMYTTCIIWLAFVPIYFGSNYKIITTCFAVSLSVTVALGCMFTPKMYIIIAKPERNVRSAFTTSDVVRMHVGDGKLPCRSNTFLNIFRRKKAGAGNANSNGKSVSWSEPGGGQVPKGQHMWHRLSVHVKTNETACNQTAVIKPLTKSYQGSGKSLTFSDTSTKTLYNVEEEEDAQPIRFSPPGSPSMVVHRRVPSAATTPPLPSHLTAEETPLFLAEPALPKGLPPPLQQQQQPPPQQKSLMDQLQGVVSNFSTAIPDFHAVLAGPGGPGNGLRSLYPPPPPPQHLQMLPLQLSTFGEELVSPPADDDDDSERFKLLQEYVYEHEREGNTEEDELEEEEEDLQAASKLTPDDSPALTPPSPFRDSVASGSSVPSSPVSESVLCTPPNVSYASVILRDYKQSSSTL

- IC50: 8 µM
SMILES: Cc1cc(C(=O)O)ccc1[C@H](N)C(=O)O
